For one assay, the target named is T1, TBK1 (Homo sapiens, UniProt Q9UHD2).
T1 construct: purchased Life Technologies (Invitrogen)
T1 sequence (Q9UHD2 1-729): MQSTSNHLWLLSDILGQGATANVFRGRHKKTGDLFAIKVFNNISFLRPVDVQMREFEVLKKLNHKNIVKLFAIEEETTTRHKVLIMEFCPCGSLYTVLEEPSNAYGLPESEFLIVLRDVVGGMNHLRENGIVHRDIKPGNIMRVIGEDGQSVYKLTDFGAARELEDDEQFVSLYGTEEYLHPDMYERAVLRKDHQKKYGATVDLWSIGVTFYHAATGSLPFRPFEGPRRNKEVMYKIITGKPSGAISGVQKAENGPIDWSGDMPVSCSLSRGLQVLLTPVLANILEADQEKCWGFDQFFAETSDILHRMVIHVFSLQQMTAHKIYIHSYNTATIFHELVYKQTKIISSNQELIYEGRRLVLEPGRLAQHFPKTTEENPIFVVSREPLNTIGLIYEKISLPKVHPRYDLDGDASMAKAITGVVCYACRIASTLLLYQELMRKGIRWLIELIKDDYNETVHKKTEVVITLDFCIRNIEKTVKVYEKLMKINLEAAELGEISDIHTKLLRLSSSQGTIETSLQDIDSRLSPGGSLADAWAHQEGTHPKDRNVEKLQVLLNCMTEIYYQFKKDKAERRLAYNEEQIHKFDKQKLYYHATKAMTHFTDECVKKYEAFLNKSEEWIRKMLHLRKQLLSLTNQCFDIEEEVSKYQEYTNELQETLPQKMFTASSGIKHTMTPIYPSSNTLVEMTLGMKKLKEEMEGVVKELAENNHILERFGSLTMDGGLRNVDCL
Put plainly: MCE (microfluidic capillary electrophoresis) kinase assay, phosphorylation of 5-FAM-TBK1-Tide by TBK1. Particulars: for inhibition at 10 µM: read-out: percent inhibition of TBK1. It counts as biochemical. How it is done: (§1) MCE operates on the principle that small fluorescently-labeled peptide substrates from ∼100 nanoliter sized aliquots of reaction samples are separable in a capillary channel etched in a quartz microfluidic chip ratio when a current is applied, [30]. […] TBK1-Tide was synthesized with an N-terminal 5– Carboxyfluorescein (5-FAM) dye for use as a substrate. […] The enzyme concentrations were then titrated and fixed to 120 nM for TBK1 and 81 nM for IKKε.
(§2) Compounds were screened at a final concentration of 10 µM in 0.1% DMSO. Two libraries of compounds were tested. […] This library was tested in duplicate to establish the reproducibility of the screen (Figure S2). A second kinase-focused library consisting of 4,727 unique and “rule of five” compliant compounds was also tested (Figures 5A and B). […]

In the next assay the target is T2, IKKα (Homo sapiens, UniProt O15111).
T2 construct: purchased Life Technologies (Invitrogen)
T2 sequence (O15111 1-745): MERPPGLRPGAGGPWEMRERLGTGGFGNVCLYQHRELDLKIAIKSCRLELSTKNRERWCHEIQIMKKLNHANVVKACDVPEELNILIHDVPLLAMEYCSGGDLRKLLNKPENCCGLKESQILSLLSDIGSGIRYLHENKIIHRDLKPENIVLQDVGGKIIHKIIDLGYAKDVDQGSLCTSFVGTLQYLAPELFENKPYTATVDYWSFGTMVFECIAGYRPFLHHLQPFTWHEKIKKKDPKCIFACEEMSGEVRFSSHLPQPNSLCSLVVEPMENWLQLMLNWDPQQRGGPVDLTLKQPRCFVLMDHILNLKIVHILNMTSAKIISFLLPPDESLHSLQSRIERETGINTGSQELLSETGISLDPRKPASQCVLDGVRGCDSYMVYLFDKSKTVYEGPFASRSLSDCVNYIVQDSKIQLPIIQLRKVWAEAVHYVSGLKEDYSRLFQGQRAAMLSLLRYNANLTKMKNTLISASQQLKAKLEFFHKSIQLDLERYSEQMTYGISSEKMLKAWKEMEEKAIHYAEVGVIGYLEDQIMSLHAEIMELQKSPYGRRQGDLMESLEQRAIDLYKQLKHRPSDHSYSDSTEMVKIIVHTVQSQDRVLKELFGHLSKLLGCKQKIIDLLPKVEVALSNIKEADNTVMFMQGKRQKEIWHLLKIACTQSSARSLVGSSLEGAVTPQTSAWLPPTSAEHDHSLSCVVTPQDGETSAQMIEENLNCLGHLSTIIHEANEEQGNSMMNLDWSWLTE
Put plainly: MCE kinase assay, phosphorylation of FL-1 peptide by IKKα (secondary screen). Particulars: for inhibition at 10 µM: read-out: percent inhibition of IKKα. The assay is classed as biochemical. How it is done:
As IKKβ and IKKα are closely related to TBK1 and IKKε, it was important to determine the specificity of any candidate inhibitors. A secondary screen was therefore performed to evaluate the ability of the top-scoring TBK1 and IKKε inhibitors to inhibit the canonical IKKs. […] Enzyme concentrations were titrated and fixed to 11.5 µM for IKKα and 1.1 µM for IKKβ and the screen was performed as described above for TBK1 and IKKε. […]
Kinase buffer contained 50 mM Tris (pH 7.5), 12 mM MgCl2, 1 mM β-glycerophosphate, 100 µM ATP, and 10 µCi γ-^32P-ATP/reaction. Reactions were incubated at 30°C for 1h. Recombinant GST-TBK1 and GST-TBK1 K38A used in the positional scanning peptide library assay were generated as described above and the assay was performed as described previously, [28]. […]

A further assay addresses T3, IKKε (Homo sapiens, UniProt Q14164).
T3 construct: purchased Life Technologies (Invitrogen)
T3 sequence (Q14164 1-716): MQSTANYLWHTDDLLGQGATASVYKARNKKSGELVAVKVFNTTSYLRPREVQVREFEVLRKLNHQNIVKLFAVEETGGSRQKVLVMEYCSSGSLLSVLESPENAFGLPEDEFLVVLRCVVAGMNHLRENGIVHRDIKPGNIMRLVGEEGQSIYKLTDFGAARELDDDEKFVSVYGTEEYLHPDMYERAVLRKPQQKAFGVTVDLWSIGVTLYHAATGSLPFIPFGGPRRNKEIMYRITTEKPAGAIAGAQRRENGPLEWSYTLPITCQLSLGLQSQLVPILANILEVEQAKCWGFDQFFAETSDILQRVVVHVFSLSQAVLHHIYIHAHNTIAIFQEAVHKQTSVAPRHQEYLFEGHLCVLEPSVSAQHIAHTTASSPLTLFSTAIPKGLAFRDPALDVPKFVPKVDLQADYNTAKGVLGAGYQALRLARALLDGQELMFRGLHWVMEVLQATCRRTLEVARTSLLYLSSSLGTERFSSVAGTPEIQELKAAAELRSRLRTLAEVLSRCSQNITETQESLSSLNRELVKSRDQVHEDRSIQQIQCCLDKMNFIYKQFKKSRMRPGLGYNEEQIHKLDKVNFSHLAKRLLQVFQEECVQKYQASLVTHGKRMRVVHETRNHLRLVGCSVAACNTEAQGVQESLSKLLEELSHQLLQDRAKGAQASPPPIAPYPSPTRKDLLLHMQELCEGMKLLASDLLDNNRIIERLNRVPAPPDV
Put plainly: MCE kinase assay, phosphorylation of 5-FAM-TBK1-Tide by IKKε. The assay is classed as biochemical. The conditions noted are these: for inhibition at 10 µM: read-out: percent inhibition of IKKε. How it is done:
as §1, §2

The next assay concerns ERRα. Also noted: method as in LOPAC library description. Particulars: transient transfection assays using GAL4-ERR LBD or full-length ERR with the mSHP promoter; ref LOPAC library description; cited from earlier work.
The target of another assay is IKKβ (Homo sapiens, UniProt O14920). Particulars: read-out: ATP Km of IKKβ for TBK1-Tide; room temperature. How it is done:
As IKKβ and IKKα are closely related to TBK1 and IKKε, it was important to determine the specificity of any candidate inhibitors. A secondary screen was therefore performed to evaluate the ability of the top-scoring TBK1 and IKKε inhibitors to inhibit the canonical IKKs. […] Enzyme concentrations were titrated and fixed to 11.5 µM for IKKα and 1.1 µM for IKKβ and the screen was performed as described above for TBK1 and IKKε.
5-FAM-labeled TBK1-Tide for library screening was generated in the High-Throughput Peptide Synthesis and Arrays Core Facility at University of North Carolina at Chapel Hill.
Kinase buffer contained 50 mM Tris (pH 7.5), 12 mM MgCl2, 1 mM β-glycerophosphate, 100 µM ATP, and 10 µCi γ-^32P-ATP/reaction. Reactions were incubated at 30°C for 1h. Recombinant GST-TBK1 and GST-TBK1 K38A used in the positional scanning peptide library assay were generated as described above and the assay was performed as described previously, [28]. […] IKKε reactions were incubated for 2 hours at room temperature and TBK1, IKKα, and IKKβ reactions were incubated for 6 hours at room temperature.

The mark [1] stands for this setting: compound at 10 µM, after 2 hours (at completion of the assay), LOPAC set.

Structures are written as SMILES. Values joined by “and” are separate entries in the source; they are usually repeats but may differ in a detail not shown here. Equal entries are not always repeated. Structures can show the parent of a compound that is named as a salt. Where two headings read alike, the source gives them in different places.

IKKβ, sequence (O14920 whole entry): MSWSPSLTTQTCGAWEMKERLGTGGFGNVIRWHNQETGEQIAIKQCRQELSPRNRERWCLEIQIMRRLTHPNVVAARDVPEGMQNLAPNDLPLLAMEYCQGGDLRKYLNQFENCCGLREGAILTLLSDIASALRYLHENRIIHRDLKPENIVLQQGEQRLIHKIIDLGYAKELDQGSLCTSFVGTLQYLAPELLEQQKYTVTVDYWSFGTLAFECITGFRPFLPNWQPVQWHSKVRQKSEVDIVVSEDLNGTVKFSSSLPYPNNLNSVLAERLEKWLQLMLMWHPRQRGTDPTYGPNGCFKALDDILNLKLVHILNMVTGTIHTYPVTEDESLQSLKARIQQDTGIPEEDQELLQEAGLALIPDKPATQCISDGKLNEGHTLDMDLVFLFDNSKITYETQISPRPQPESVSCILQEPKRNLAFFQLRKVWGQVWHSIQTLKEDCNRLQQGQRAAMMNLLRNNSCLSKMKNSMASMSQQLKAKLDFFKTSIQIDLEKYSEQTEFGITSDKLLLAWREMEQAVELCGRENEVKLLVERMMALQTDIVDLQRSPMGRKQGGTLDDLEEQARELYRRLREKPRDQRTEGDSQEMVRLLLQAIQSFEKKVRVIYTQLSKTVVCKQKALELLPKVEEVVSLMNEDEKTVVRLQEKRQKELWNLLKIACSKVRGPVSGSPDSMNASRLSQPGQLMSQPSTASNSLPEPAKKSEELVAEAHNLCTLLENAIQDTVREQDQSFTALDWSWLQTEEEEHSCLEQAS

`COc1ccc2c(c1)/C(=C/c1cnc[nH]1)C(=O)N2` [UNC10100994, SU9516]: the inhibition – broadly, the change of the read-out against control, counted positive when it falls – at 10 µM came out at 85.5% on TBK1 (setting [1]), 21.5% on IKKα (setting [1]) and 66% on IKKε (setting [1]).

As to `O=C1Nc2ccccc2/C1=C1/Nc2ccccc2/C1=N\O` [UNC10100206, Indirubin-3′-oxime], at TBK1 (setting [1]), the “percent inhibition of TBK1” value was found to be 58%. Moreover, at IKKα (setting [1]), the “percent inhibition of IKKα” value turned out to be 2.5%. In addition, the “percent inhibition of IKKε” value at IKKε (setting [1]) is 68%.

`O=c1cc(-c2ccccc2F)[nH]c2cc3c(cc12)OCO3` [UNC10100799, CHM-1 hydrate]: on TBK1 (setting [1]), the “percent inhibition of TBK1” value is listed as 67.5%. Besides, at IKKα (setting [1]), the “percent inhibition of IKKα” value is on record as 3%. Besides, the “percent inhibition of IKKε” value at IKKε (setting [1]) came out at 12.5%.

`Oc1c2ccccc2c2c3c(cccc13)N=N2` [UNC10100533, SP600125]: the results for the inhibition at 10 µM at TBK1 (setting [1]), at IKKα (setting [1]) and at IKKε (setting [1]) were 76.5%, 10% and 53.5%, respectively.

For `CC(=O)OCC1=C(C(=O)O)N2C(=O)[C@@H](NC(=O)CSc3ccncc3)[C@H]2SC1` [UNC10100339, Cephapirin sodium salt], the inhibition at 10 µM was 34% at TBK1 (setting [1]), -0.5% on IKKα (setting [1]) and 60% on IKKε (setting [1]).

`Nc1c(S(=O)(=O)O)cc(Nc2ccc(Nc3nc(Cl)nc(Nc4cccc(S(=O)(=O)O)c4)n3)c(S(=O)(=O)O)c2)c2c1C(=O)c1ccccc1C2=O` [UNC10101110, Reactive Blue 2]: the inhibition at 10 µM at TBK1 turned out to be 74%; on IKKα, 55.5%; at IKKε, 67%.

Regarding `NC(Cc1cc(O)c(O)cc1O)C(=O)O` (racemic) [UNC10100691, 6-Hydroxy-DL-DOPA], the “percent inhibition of TBK1” value at TBK1 (setting [1]) is listed as 77.5%. Further, at IKKα (setting [1]), the “percent inhibition of IKKα” value is recorded as 29%. In addition, the “percent inhibition of IKKε” value at IKKε (setting [1]) came out at 61%.

Take `CN(C)CCC(c1ccccc1)c1ccccn1.O=C(O)/C=C\C(=O)O` (centres unmarked) [UNC10101037, Pheniramine maleate salt]: on TBK1 (setting [1]), the “percent inhibition of TBK1” value is on record as 80.5%. The “percent inhibition of IKKα” value on IKKα (setting [1]) was -0.5%. In addition, on IKKε (setting [1]), the “percent inhibition of IKKε” value was determined as 20%.

As for `Brc1ccc([C@H]2CN3CCSC3=N2)cc1.O=C(O)C(=O)O` [UNC10100081, (−)-p-Bromolevamisole oxalate], the “percent inhibition of TBK1” value on TBK1 (setting [1]) is 70%. Moreover, the “percent inhibition of IKKα” value on IKKα (setting [1]) was -2%. Moreover, the “percent inhibition of IKKε” value at IKKε (setting [1]) stood at 26.5%.

As for `COc1cc(/C=C(\C#N)C(=O)Nc2nnc(C(F)(F)F)s2)ccc1OCc1ccc(C(F)(F)F)cc1C(F)(F)F` [UNC10101318, XCT790], the “percent inhibition of TBK1” value at TBK1 (setting [1]) was found to be 71.5%. Further, in the assay on ERRα, the IC50 (usually the concentration that gives 50% inhibition) was […]. In addition, the “percent inhibition of IKKα” value on IKKα (setting [1]) is listed as 28%. Also, the “percent inhibition of IKKε” value at IKKε (setting [1]) came to 10.5%.

On to `CN(C)CCC(c1ccc(Cl)cc1)c1ccccn1.O=C(O)/C=C\C(=O)O` (racemic) [UNC10100321, (±)-Chlorpheniramine maleate salt], for which, on TBK1 (setting [1]), the “percent inhibition of TBK1” value was 84.5%. In addition, the “percent inhibition of IKKα” value on IKKα (setting [1]) is on record as -3%. For the same molecule, the “percent inhibition of IKKε” value on IKKε (setting [1]) is listed as 48%.

Turning to `Nc1ncnc2c1ncn2[C@@H]1O[C@H](COP(=O)(O)OP(=O)(O)OP(=O)(O)O)[C@@H](O)[C@H]1O` [ATP], the Km (usually the concentration of substrate that gives half-maximal velocity) at TBK1 (TBK1-Tide fixed at 1 µM, room temperature, read-out: Km for ATP, TBK1) is 7.5 µM and 7.54 µM; on IKKβ, 2 µM; on IKKα (room temperature, read-out: ATP Km of IKKα for FL-1) it was 134 µM; at IKKε (TBK1-Tide fixed at 1 µM, room temperature, read-out: Km for ATP, IKKε) it was 4.7 µM and 4.67 µM.

As to `CC(=O)NCCc1c[nH]c2ccccc12` [UNC10100161, N-Acetyltryptamine], the inhibition at 10 µM on TBK1 (setting [1]) is 74.5%; on IKKα (setting [1]), -1.5%; at IKKε (setting [1]), 24%.

Source of the values: PMC3408500, “Development of a High-Throughput Assay for Identifying Inhibitors of TBK1 and IKKε” (PLoS ONE, 2012).
